The results in this text go back to patent US7045515B2, “β-lactam compounds process for reproducing the same and serum cholesterol-lowering agents containing the same” (Kotobuki Pharmaceutical Co., Ltd., priority 2001, dated 2006).

Read-outs that look alike come from different tables or passages of the source.

Series [1] relates to hypercholesterolemic hamster. The experiment in a line: Hypocholesterolemic activity in hamsters fed a 0.5%-cholesterol diet. The class given is in vivo. Particulars: Mesocricetus auratus, po, negative = hypocholesterolemic action, read-out: Serum cholesterol (%); for change in vivo at 3 mg/kg: 3 mg/kg orally daily; for change in vivo at 20 mg/kg: 20 mg/kg orally daily; for change in vivo at 10 mg/kg: 10 mg/kg orally daily; for change in vivo at 0.3 mg/kg: 0.3 mg/kg orally daily. Here is the method: [Hypocholesterolemic Agents Using the Hypercholesterolemic Hamster]
Hamsters were derived into groups with 3 animals per group and fed a 0.5%-cholesterol containing CE-2 diet (CLEA Japan Inc.) for 4 or 7 days. The normal dietary group were fed a standard CE-2 during the experiment. Each compound or vehicle (0.2 mL of corn oil) per 100 g body weight was orally administered daily for 4 or 7 days from the day that high-cholesterol diet was started. At 20 hr after the final administration, blood samples were collected from the abdominal aorta of non-fasted animals under anesthesia with diethylether. Serum cholesterol was measured by enzymatic method using cholesterol E-test wako (Wako Pure Chemical Industries). Activity of the test compounds is expressed as percent reduction of the test compound on the basis of comparison with rised total cholesterol treated only with no-treatment-high-cholesterol diet. The test compounds with the optical rotation value in the compounds 1–58 were evaluated as the chiral compounds.

The mark [2] stands for this setting: 168 h, dosage day 7, changed percent vs rise in total cholesterol on high-cholesterol diet.
Where [3] appears, read: 96 h, dosage day 4, changed percent.

Turning to `O=C1[C@H](CCCc2ccc(F)cc2)[C@@H](c2ccc(C[C@@H]3O[C@H](CO)[C@@H](O)[C@H](O)[C@H]3O)cc2)N1c1ccc(F)cc1` (relative stereo) [Compound 2, (4S*,3R*)-4-(4-{[(2S,5S,3R,4R,6R)-3,4,5-Trihydroxy-6-(hydroxymethyl)perhydro-2H-pyran-2-yl]methyl}phenyl)-1-(4-fluorophenyl)-3-[3-(4-fluorophenyl)propyl]azetidine-2-one], the melting point fell in the range of 110 to 112 °C. For the same compound, the change in vivo at 3 mg/kg in series [1] (setting [2]) is -120%.
As for `CC(=O)OC[C@H]1O[C@@H](Cc2ccc([C@@H]3[C@@H](CCOc4ccc(F)cc4)C(=O)N3c3ccc(F)cc3)cc2)[C@H](OC(C)=O)[C@@H](OC(C)=O)[C@@H]1OC(C)=O` (relative stereo) [Compound 13, (3S,2R,4R,5R,6R)-2-[(4-{(4S*,3R*)-1-(4-Fluorophenyl)-3-[2-(4-fluorophenoxy)ethyl]-2-oxoazetidine-4-yl}phenyl)methyl]-4,5-diacetyloxy-6-(acetoxymethyl)perhydro-2H-pyran-3-ylacetate], the melting point was in the range of 64 to 66 °C. Besides, in series [1] (setting [3]), the change in vivo at 20 mg/kg is -28%.
`O=C1[C@H](CCOc2ccc(F)cc2)[C@@H](c2ccc(OCC3O[C@H](CO)[C@@H](O)[C@H](O)[C@H]3O)cc2)N1c1ccc(F)cc1` (relative stereo) [Compound 15, (4S*,3R*)-4-(4-{[(4S,5S,2R,3R,6R)-3,4,5-Trihydroxy-6-(hydroxymethyl)perhydro-2H-pyran-2-yl]methoxy}phenyl)-1-(4-fluorophenyl)-3-[2-(4-fluorophenoxy)ethyl]azetidine-2-one] returned a melting point of 64 to 65 °C. In addition, the change in vivo at 20 mg/kg in series [1] (setting [3]) is -21%.
As for `O=C1[C@H](CC[C@H](O)c2ccc(C3OC(CO)C(O)C(O)C3O)cc2)C(c2ccc(F)cc2)N1c1ccc(F)cc1` (stereo in doubt) [Compound 49, 3-((3S)-(4-[(2S,5S,3R,4R,6R)-3,4,5-Trihydroxy-6-(hydroxymethyl)perhydro-2H-pyran-2-yl]phenyl}-3-hydroxypropyl)(4S,3R)-1,4-bis(4-fluorophenyl)azetidine-2-one], the melting point lay within 111 to 113 °C. Besides, the change in vivo at 10 mg/kg in series [1] (setting [3]) was -55%.
`O=C1[C@H](CC[C@H](O)c2ccc(F)cc2)[C@@H](c2ccc(C[C@@H]3O[C@H](CO)[C@@H](O)[C@H](O)[C@H]3O)cc2)N1c1ccccc1` [Compound 23, (4S,3R)-3-[(3S)-3-(4-Fluorophenyl)-3-hydroxypropyl]-4-(4-{[(2S,5S,3R,4R,6R)-3,4,5-trihydroxy-6-(hydroxymethyl)perhydro-2H-pyran-2-yl]methyl}phenyl)-1-phenylazetidine-2-one] had a melting point of 104 to 106 °C. Moreover, the change in vivo at 3 mg/kg in series [1] (setting [2]) is -177%.
For the compound `Cc1ccc(N2C(=O)[C@H](CC[C@H](O)c3ccc(F)cc3)[C@H]2c2ccc(C[C@@H]3O[C@H](CO)[C@@H](O)[C@H](O)[C@H]3O)cc2)cc1` [Compound 24, (4S,3R)-3-[(3S)-3-(4-Fluorophenyl)-3-hydroxypropyl]-4-(4-{[(2S,5S,3R,4R,6R)-3,4,5-trihydroxy-6-(hydroxymethyl)perhydro-2H-pyran-2-yl]methyl}phenyl)-1-(4-methylphenyl)azetidine-2-one], the melting point fell in the range of 102 to 104 °C. Further, the change in vivo at 3 mg/kg in series [1] (setting [2]) was -156%.
On to `Cc1ccc(N2C(=O)[C@H](CCC(=O)c3ccc(F)cc3)[C@H]2c2ccc(C[C@@H]3O[C@H](CO)[C@@H](O)[C@H](O)[C@H]3O)cc2)cc1` [Compound 28, (4S,3R)-4-(4-{[(2S,5S,3R,4R,6R)-3,4,5-Trihydroxy-6-(hydroxymethyl)perhydro-2H-pyran-2-yl]methyl}phenyl)-1-(4-methylphenyl)-3-[3-(4-fluorophenyl)-3-oxopropyl]azetidine-2-one], for which the melting point lay within 86 to 88 °C. Also, in series [1] (setting [2]), the change in vivo at 3 mg/kg was -130%.
In the case of `O=C(O)[C@H]1O[C@@H](Cc2ccc([C@@H]3[C@@H](CC[C@H](O)c4ccc(F)cc4)C(=O)N3c3ccc(F)cc3)cc2)[C@H](O)[C@@H](O)[C@@H]1O` [Compound 33], the melting point lay within 82 to 84 °C. The change in vivo at 3 mg/kg in series [1] (setting [3]) is -67%.
Consider `O=C1[C@H](CC[C@H](O)c2ccc(F)cc2)[C@@H](c2ccc(F)cc2)N1c1ccc(C[C@@H]2O[C@H](CO)[C@@H](O)[C@H](O)[C@H]2O)cc1` [Compound 38, (4S,3R)-3-[(3S)-3-(4-Fluorophenyl)-3-hydroxypropyl]-1-(4-{[(2S,5S,3R,4R,6R)-3,4,5-trihydroxy-6-(hydroxymethyl)perhydro-2H-pyran-2-yl]methyl}phenyl)-1-(4-fluorophenyl)azetidine-2-one], for which the melting point was in the range of 200 to 201 °C. Besides, the change in vivo at 10 mg/kg in series [1] (setting [3]) was -2%.
`O=C1[C@H](CCCc2ccccc2)[C@@H](c2ccc(C[C@@H]3O[C@H](CO)[C@@H](O)[C@H](O)[C@H]3O)cc2)N1c1ccccc1` [Compound 44, 3-(3-Phenylpropyl)(4S,3R)-4-(4-{[(5S,3R,4R,6R)-3,4,5-trihydroxy-6-(hydroxymethyl)perhydro-2H-pyran-2-yl]methyl}phenyl)-1-phenylazetidine-2-one] had a melting point of 84 to 86 °C.
Consider `O=C1[C@H](CC[C@H](O)c2ccc(F)cc2)[C@@H](c2ccc(/C=C/[C@@H]3O[C@H](CO)[C@@H](O)[C@H](O)[C@H]3O)cc2)N1c1ccc(F)cc1` [Compound 45, (4S,3R)-3-[(3S)-3-(4-Fluorophenyl)-3-hydroxypropyl]4-(4-{[(2S,5S,3R,4R,6R)-3,4,5-trihydroxy-6-(hydroxymethyl)perhydro-2H-pyran-2-yl]ethene}phenyl)-1-(4-fluorophenyl)azetidine-2-one], for which the melting point lay in the range of 84 to 86 °C. In series [1] (setting [3]), the change in vivo at 3 mg/kg is -136%.
For the compound `O=C1[C@H](CC[C@H](O)c2ccc(F)cc2)[C@@H](c2ccc(CC[C@@H]3O[C@H](CO)[C@@H](O)[C@H](O)[C@H]3O)cc2)N1c1ccc(F)cc1` [Compound 46, (4S,3R)-3-[(3S)-3-(4-Fluorophenyl)-3-hydroxypropyl]4-(4-([(2S,5S,3R,4R,6R)-3,4,5-trihydroxy-6-(hydroxymethyl)perhydro-2H-pyran-2-yl]ethyl}phenyl)-1-(4-fluorophenyl)azetidine-2-one], the melting point fell in the range of 153 to 155 °C. The change in vivo at 3 mg/kg in series [1] (setting [3]) is -147%.
As for `O=C1[C@H](CC[C@H](O)c2ccc(F)cc2)[C@@H](c2ccc(/C=C/C[C@@H]3O[C@H](CO)[C@@H](O)[C@H](O)[C@H]3O)cc2)N1c1ccc(F)cc1` [Compound 47], the melting point was in the range of 72 to 74 °C.
For the compound `O=C1[C@H](CC[C@H](O)c2ccc(F)cc2)[C@@H](c2ccc(CCC[C@@H]3O[C@H](CO)[C@@H](O)[C@H](O)[C@H]3O)cc2)N1c1ccc(F)cc1` [Compound 48], the melting point lay in the range of 81 to 83 °C.
The same measure, in the same setting: then `O=C1[C@H](CC[C@H](O)c2ccc(F)cc2)[C@@H](c2ccc(CCCOC[C@@H]3O[C@H](CO)[C@@H](O)[C@H](O)[C@H]3O)cc2)N1c1ccc(F)cc1` [Compound 50], with 61 to 63 °C; and `O=C1[C@H](CC[C@H](O)c2ccc(F)cc2)[C@@H](c2ccc(/C=C/COC[C@@H]3O[C@H](CO)[C@@H](O)[C@H](O)[C@H]3O)cc2)N1c1ccc(F)cc1` [Compound 51], with 65 to 67 °C; and `O=C1[C@H](CC[C@H](O)c2ccc(F)cc2)[C@@H](c2ccc(/C=C/CC[C@@H]3O[C@H](CO)[C@@H](O)[C@H](O)[C@H]3O)cc2)N1c1ccc(F)cc1` [Compound 52], with 79 to 81 °C.
`O=C1[C@H](CC[C@H](O)c2ccc(F)cc2)[C@@H](c2ccc(CCCC[C@@H]3O[C@H](CO)[C@@H](O)[C@H](O)[C@H]3O)cc2)N1c1ccc(F)cc1` [Compound 53] registered a melting point of 81 to 83 °C.
Still for that read-out and setting: then `O=C1[C@H](CC[C@H](O)c2ccc(F)cc2)[C@@H](c2ccc(/C=C/CCC[C@@H]3O[C@H](CO)[C@@H](O)[C@H](O)[C@H]3O)cc2)N1c1ccc(F)cc1` [Compound 54], with 69 to 71 °C; and `O=C1[C@H](CC[C@H](O)c2ccc(F)cc2)[C@@H](c2ccc(CCCCC[C@@H]3O[C@H](CO)[C@@H](O)[C@H](O)[C@H]3O)cc2)N1c1ccc(F)cc1` [Compound 55], with 66 to 68 °C.
Consider `O=C1[C@H](CC[C@H](O)c2ccc(F)cc2)[C@@H](c2ccc(CC[C@@H]3O[C@H](CO)[C@@H](O)[C@H](O)[C@H]3O)cc2)N1c1ccccc1` [Compound 56], for which the melting point lay within 82 to 84 °C. For the same compound, in series [1] (setting [3]), the change in vivo at 0.3 mg/kg was -84%.
For `Cc1ccc(N2C(=O)[C@H](CC[C@H](O)c3ccc(F)cc3)[C@H]2c2ccc(CC[C@@H]3O[C@H](CO)[C@@H](O)[C@H](O)[C@H]3O)cc2)cc1` [Compound 57] the same measures were 116 to 118 °C and -81.3%.
`O=C(O)[C@H]1O[C@@H](CCc2ccc([C@@H]3[C@@H](CC[C@H](O)c4ccc(F)cc4)C(=O)N3c3ccccc3)cc2)[C@H](O)[C@@H](O)[C@@H]1O` [Compound 58] registered a melting point of 110 to 112 °C.

The term melting point denotes the temperature, or range, at which the solid turns liquid.
